The record followed here is US7786042B2, “Fluridone as an anti-inflammatory agent” (Universita' Degli Studi Di Genova, priority 2005, dated 2010).

What all share (type): cell-based
For data set [1], the system named is murine macrophages RAW 264.7. Put plainly: PGE2 production by murine macrophages RAW 264.7. Here is the method:
(§1) Murine macrophages of the continuous cell line RAW 264.7 were pre-incubated with 50 μM fluridone (flu) for 2 hours and then stimulated with 10 μM ABA or with 100 ng/ml of lipopolysaccharide (LPS) for 6 hours. The concentration of PGE2 (panel A) or of TNF-α (panel B) in the cell supernatant was measured as described under Materials and Methods and was compared with that from untreated (control) cells. The results are the mean ±SD from 4 experiments.
(§2) The method used to assay TNF-α is based on the high sensitivity of the murine fibroblast cell line L929 to the toxic effect of this cytokine. Briefly, fibroblasts were seeded (3×10^4/well) in 96-well plates and after 24 h the medium was substituted with the supernatant of the cell cultures where the TNF-α content was to be estimated. In parallel, known amounts of the cytokine were added to other wells, in order to obtain a standard curve of toxicity. After 48 hours, MTT (0.05 mg/ml) was added to each well and after 3 hours incubation at 37° C. (during this time viable cells reduce the dye producing formazan crystals), the medium was removed, DMSO (200 μl/well) was added to dissolve the formazan crystals and the absorbance was recorded at 570 nm with a spectrophotometric plate reader. The TNF-α concentration in the culture supernatants was calculated by comparison of the percentage of viable cells in the treated wells with those containing known amounts of TNF-α (standard curve). The PGE2 release in the medium by stimulated inflammatory cells was measured by an immunoenzymatic assay kit, commercially available (PGE2 EIA-kit, Cayman Chemicals, Ann Arbor, Mich., USA).

Data set [2] deals with human monocytes. Put plainly: TNF-α release by human monocytes (L929 toxicity assay). Here is the method: (§3) Human monocytes were pre-incubated with 50 μM fluridone (flu) for 2 hours and then stimulated with 10 μM ABA or with 100 ng/ml of lipopolysaccharide (LPS) for 6 hours. The concentration of PGE2 (panel A) and of TNF-α (panel B) in the cell supernatant was measured as described under Materials and Methods and compared with that of untreated cells (control). The results are the mean ±SD from 4 experiments.
as §2

Data set [3] relates to murine microglia cell line N9. Briefly: NO release by murine microglia N9. Here is the method:
The method used to determine NO released from the cells into the medium exploits the spontaneous conversion of NO to nitrates and the subsequent enzymatic reduction of nitrates to nitrites by the enzyme nitrate reductase. […] Granulocytes (60×10^6/well) or murine microglia cells N9 (2×10^5/well) were incubated in 24-well plates for 60 min at 37° C. in the presence of ABA at different concentrations. The supernatants were then centrifuged and diluted with an equal volume of Griess reagent (0.1% naphthyl-ethylenediamine dihydrochloride in distilled water, 1% sulphanylamide in 5% concentrated H3PO4). Absorbance at 545 nm was estimated after 10 min and the nitrite concentration was calculated using a standard curve, generated in parallel with known amounts of NaNO2.

The test system of data set [4] is murine microglia cell line N9. Put plainly: TNF-α release by murine microglia N9. Here is the method:
Confluent cell cultures from the murine microglia cell line N9 were pre-incubated in the presence or in the absence of 50 μM fluridone for 4 hours and then stimulated with 10 μM ABA or with 100 ng/ml lipopolysaccharide for 24 hours. The concentration of PGE2 (panel A) and of TNF-α (panel B) in the cell supernatant was measured as described under Materials and Methods. The results are expressed as release relative to control cultures in the absence of added stimuli and are the mean ±SD from 4 experiments.
as §2

For data set [5], the system named is human monocytes. Briefly: MCP-1 release from human monocytes. Here is the method:
Human monocytes were incubated for 6 hours with 10 μM ABA or with 100 ng/ml of lipopolysaccharide (LPS), in the presence or in the absence of fluridone (50 μM) and the MCP-1 concentration in the cell supernatant was immunoenzimatically measured, with a commercially available kit (R&D System, CA, USA). The results are the mean ±SD from 3 experiments.

Data set [6] relates to murine macrophages RAW 264.7. Briefly: Cell viability by Trypan blue exclusion, RAW 264.7. The following applies: RAW 264.7, fluridone 50 μM. The text has this: A similar effect (90% inhibition) is produced by fluridone also on the LPS-induced TNF-α production in both cell types (FIGS. 7 A and B). In all these cases, no toxicity of fluridone on the cells was observed, as evaluated by the ability of excluding the dye Trypan blue.

Data set [7] has as its system human lymphocytes. Briefly: Lymphocyte proliferation ([3H]-thymidine incorporation). The settings on record: for inhibition at 50 µM: Homo sapiens, Lymphocyte, pre-incubation with fluridone 50 μM. Here is the method: Low density mononuclear cells (lymphocytes and monocytes), isolated from peripheral blood, were incubated in triplicate (1.5×10^5/well) in 96-well plates in RPMI containing 20% autologous plasma in the absence (control) or in the presence of 50 μM fluridone for 18 hours. Phytohemagglutinin (PHA) (0.1 μg/ml) or phorbol myristate acetate (PMA) (0.1 μg/ml) were then added, with or without the simultaneous addition of ABA. After 72 hours, [^3H]-Thymidine (Amersham Biosciences, Uppsala, Sweden) was added to the cultures (0.2 μCi/well) and after 6 hours the incorporated radioactivity was evaluated by filtration of the cells on glass fiber filters (Whatman, Maidenstone, UK). Results are the mean ±SD from 3 experiments. In the absence of stimuli (PHA or PMA), no lymphocyte proliferation was observed.
Blood enriched in leukocytes (buffy coat), was provided by Galliera Hospital, Genova, Italy, upon informed consent of the volunteer donors. Lymphocytes, granulocytes and monocytes were isolated by density centrifugation through Ficoll-Paque (Amersham Biosciences, Uppsala, Sweden). Low-density mononuclear cells (including lymphocytes and monocytes) were collected at the plasma-Ficoll interphase and monocytes were further purified by adherence to plastic cell culture flasks. Granulocytes were isolated from high-density cells, sedimented under the Ficoll layer by hypotonic lysis of contaminating erythrocytes. All cell populations were then resuspended in RPMI 1640 medium (Sigma) containing penicillin (100 U/ml), streptomycin (100 μg/ml) and 20% autologous plasma. Culture conditions were as those described below for cell lines.
On the technique in general: Dividing cells build labelled thymidine or BrdU into new DNA.

For data set [8], the system named is human monocytes. Briefly: PGE2 production / COX-2 expression in human monocytes. Here is the method:
as §3, §2

The subject of data set [9] is human granulocytes. Put plainly: NO release by granulocytes (nitrite, Griess).
Protocol: Granulocytes were resuspended at 5×10^6/ml in HBSS and 225 μl of the cell suspension were added to 50 μl of 0.2 mM cytochrome c and were incubated for 30 min at 37° C. in the absence (control) or in the presence of 250 nM or 20 μM ABA, the latter concentration without or with 1 mM EDTA, 20 mM nicotinamide or 0.1 mM 8-Br-cADPR. […] The results are expressed as the production relative to control cells, not stimulated with ABA, and are the mean ±SD from 5 experiments.
The test system of data set [10] is murine macrophages RAW 264.7. Briefly: TNF-α production by murine macrophages RAW 264.7. Here is the method: as §1, §2
Setting [11] is: exogenous ABA 10-20 μM added to fluridone-treated cultures.

Structures are written as SMILES. “Also recorded” adds a separate entry of the source. Where two headings read alike, the source gives them in different places.

With `Cn1cc(-c2ccccc2)c(=O)c(-c2cccc(C(F)(F)F)c2)c1` [Fluridone, 1-methyl-3-phenyl-5-(α,α,α-trifluoro-m-tolyl)-4-pyridone], the “Effects of Fluridone: COX-PGE2” value in [1] and in [8] was “↓COX-PGE2” throughout. Besides, the “LPS-stimulated PGE2 production” value in data set [1] (fluridone 50 μM) and in data set [8] (fluridone 50 μM) was “completely inhibits” in each case. The “Effects of Fluridone: TNF-α release” value in data set [2], in [4] and in data set [10] was “↓TNF-α release” each time. The inhibition at 50 µM in [2] (Homo sapiens, Monocyte, fluridone 50 μM, read-out: inhibition of LPS-induced TNF-α production) was 90%; in data set [7] (read-out: inhibition of PHA-induced cell proliferation) it was 50%; in data set [7] (read-out: inhibition of PMA-induced cell proliferation), 90%; in data set [9] (Homo sapiens, read-out: inhibition of NO release), approximately 80%; in data set [10] (Mus musculus, RAW264.7, fluridone 50 μM, read-out: inhibition of LPS-induced TNF-α production), 90%. The “Effects of Fluridone: NO release” value in data set [3] is recorded as “↓NO release”. The “Effects of Fluridone: MCP-1 release” value in [5] was “↓MCP-1 release”. In addition, the “release of MCP-1 by LPS-stimulated monocytes” value in [5] (fluridone 50 μM) is recorded as “almost completely inhibits”. The “toxicity on the cells (Trypan blue exclusion)” value in data set [6] is reported as “no toxicity”. In data set [7], the “Effects of Fluridone: PMA-, LPS-, PHA-induced proliferation” value is recorded as “↓PMA-, LPS-,”. In addition, the “Effects of Fluridone: fMLP-, ATP-, β-amyloid-induced NO release” value in data set [9] is listed as “↓fMLP-, ATP-, β-”.

On to `CC1=CC(=O)CC(C)(C)[C@@]1(O)/C=C/C(C)=C\C(=O)O` (racemic) [ABA, (±)-cis, trans ABA], for which the “release of PGE2 (COX-PGE2)” value in data set [1] (ABA 0.1-10 μM) is listed as “increased release; also recorded: ↑COX-PGE2”. The “release of TNF-α” value in data set [2] (ABA 0.1-10 μM) was “significant increase”; in [4] (ABA 0.2-20 μM), “increase; also recorded: ↑TNF-α release”; in data set [10] (ABA 0.1-10 μM), “increased release; also recorded: ↑TNF-α release”. Moreover, in [2] (Added ABA 5-50 μM), the “Effects of ABA: TNF-α release” value is recorded as “↑TNF-α release”. In addition, the “TNF-α release compromised by fluridone” value in data set [2] (setting [11]), in [4] (setting [11]) and in data set [10] (setting [11]) was “partly restores” throughout. For the same compound, the “release of NO” value in data set [3] (ABA 0.2-20 μM) was “increase; also recorded: ↑NO release”. Moreover, the “NO release compromised by fluridone” value in data set [3] (setting [11]) is “partly restores”. In [5] (ABA 0.1-10 μM), the “increase of release of MCP-1” value is listed as “approx. two-fold”. Besides, the “Effects of ABA: MCP-1 release” value in [5] (Added ABA 5-50 μM) is recorded as “↑MCP-1 release”. For the same compound, in data set [7] (ABA 50 to 500 μM, in the absence of other stimuli (PMA, PHA)), the stimulation of proliferation worked out at 30%. Moreover, in data set [7] (Added ABA 50-500 μM), the “Effects of ABA: proliferation” value is given as “↑proliferation”. Also, the “restoration of the proliferative response” value in data set [7] (excess exogenous ABA 500 μM together with fluridone) is “approximately 40%”. In data set [8] (ABA 0.1-10 μM), the “expression of cyclooxygenase 2 (COX-2), Western blot” value is listed as “increased expression”. For the same compound, the “production of prostaglandin E2 (PGE2)” value in data set [8] (ABA 0.1-10 μM) is given as “increased production”. Also, in data set [8] (Added ABA 5-50 μM), the “Effects of ABA: COX-PGE2” value is reported as “↑COX-PGE2”. The “production/release of nitric oxide (NO)” value in data set [9] (ABA 0.2-20 μM) was “stimulation; also recorded: ↑NO release”.
